Reference: US8530404B2, “Compounds and methods for treatment of cancer” (FibroGen, Inc., priority 2005, dated 2013)
Read-outs that look alike come from different tables or passages of the source.

Columns and labels:
human A549 lung tumors = test: Subcutaneously implanted human A549 lung tumor mouse xenograft (Example 2); assay type: in vivo; settings: 20 mg/kg PO
NDRG1 gene expression = test: In vivo NDRG1 gene expression in Swiss Webster mice (quantitative PCR); settings: Mus musculus, iv, 4 h, read-out: fold change in NDRG1 mRNA level
Outline: (§1)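 Male Swiss Webster mice (25 g) given single i.v. tail-vein dose of 60 mg/kg; kidneys taken 4 h later. mRNA measured by TaqMan qPCR, normalized to 18S rRNA, expressed as fold change versus untreated controls.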

BNIP3 gene expression [1] = test: BNIP3 gene expression in Kelly neuroblastoma cells; assay type: cell-based; settings: Kelly, read-out: fold-increase in BNIP3 mRNA expression
BNIP3 gene expression [2] = test: In vivo BNIP3 gene expression in Swiss Webster mice (quantitative PCR); settings: Mus musculus, iv, 4 h, single 60 mg/kg i.v. dose, four hours after administration, normalized to 18S
Outline: as §1

BNIP3L gene expression = test: In vivo BNIP3L gene expression in Swiss Webster mice (quantitative PCR); settings: Mus musculus, iv, 4 h, single 60 mg/kg i.v. dose, four hours after administration, normalized to 18S
Outline: as §1

[3] = Body weight in H-460 xenograft mice (Example 1); assay type: in vivo, mouse; settings: 20 mg/kg PO
Procedure: Sizes of the primary tumors were measured through the skin with calipers once per week. Tumor volumes were calculated by the formula V═(W^2*L)/2. Body weight of the mice in each group was also measured once per week during the experimental period. All animals were sacrificed following thirty-two days of treatment. Primary tumors were excised and weighed on an electronic balance. Blood samples were taken during terminal sacrifice and placed in microhematocrit tubes containing EDTA. Complete Blood Counts (CBC) and reticulocyte analysis were performed with the Cell Dyn 3700 analyzer (Abbott Diagnostics), as described by the manufacturer.
Thus, differences in tumor progression as measured by mean tumor volumes could not be attributed to any generalized toxicity or suppression of normal metabolism that might have been detected by changes in body weights.

CDKN1C gene expression = CDKN1C gene expression in Kelly neuroblastoma cells; assay type: cell-based; settings: Kelly, read-out: fold-increase in CDKN1C mRNA expression

For `COc1ccc(Oc2ccc3c(O)c(C(=O)NCC(=O)O)ncc3c2)cc1` [Compound C, {[4-Hydroxy-7-(4-methoxy-phenoxy)-isoquinoline-3-carbonyl]-amino}-acetic acid], the “A549 mean tumor volume” value (human A549 lung tumors; week 5) was 246 mm^3, the “A549 mean tumor volume” value (human A549 lung tumors; week 6) was 304 mm^3 and the “A549 mean tumor volume” value (human A549 lung tumors; week 7) was 341 mm^3. The “A549 mean tumor volume” value (human A549 lung tumors; week 8) was 402 mm^3, the “A549 mean tumor volume” value (human A549 lung tumors; week 9) was 429 mm^3 and the fold induction at 60 mg/kg (NDRG1 gene expression) was 1. For the same compound, the fold induction at 20 µM (BNIP3 gene expression [1]) was 2.6, the fold induction at 60 mg/kg (BNIP3 gene expression [2]; read-out: fold change in BNIP3 mRNA level, kidney) was 1.5 and the fold induction at 60 mg/kg (BNIP3 gene expression [2]; read-out: fold change in BNIP3 mRNA level, liver) was 3.5. The fold induction at 60 mg/kg (BNIP3L gene expression; read-out: fold change in BNIP3L mRNA level, kidney) was 0.9, the fold induction at 60 mg/kg (BNIP3L gene expression; read-out: fold change in BNIP3L mRNA level, liver) was 2.6 and the “mean animal body weight” value ([3]; day 0) was 25.7 grams. The “mean animal body weight” value ([3]; day 10) was 29.4 grams, the “mean animal body weight” value ([3]; day 17) was 29.9 grams and the “mean animal body weight” value ([3]; day 24) was 31.0 grams. The “mean animal body weight” value ([3]; day 31) was 30.9 grams and the fold induction at 20 µM (CDKN1C gene expression) was 49.
